How the values were obtained:
ALK5 (aa162-503) = ALK5 (aa162-503) (Homo sapiens (Human), UniProt P36897); test: Caliper biochemical peptide phosphorylation assay, ALK5; conditions: 15 μm ATP, 60 min at 30° C.; read-out: ALK5 EPK (IC50)
[1] = molecular target: T1, wild-type ALK2 (aa172-499) (Homo sapiens (Human), UniProt Q04771); test: ADPGlo biochemical autophosphorylation assay, ALK2; conditions: 15 μm ATP, 60 min at 32° C.
[2] = molecular target: T1, wild-type ALK2 (aa172-499); test: Caliper biochemical peptide phosphorylation assay, ALK2; conditions: 15 μm ATP, 60 min at 30° C.; read-out: ALK2 EPK (IC50)
ALK3 (aa198-525) = ALK3 (aa198-525) (Homo sapiens (Human), UniProt P36894); test: ADPGlo biochemical autophosphorylation assay, ALK3; conditions: 15 μm ATP, 60 min at 32° C.
ALK3 (aa198-525), sequence (P36894 198-525): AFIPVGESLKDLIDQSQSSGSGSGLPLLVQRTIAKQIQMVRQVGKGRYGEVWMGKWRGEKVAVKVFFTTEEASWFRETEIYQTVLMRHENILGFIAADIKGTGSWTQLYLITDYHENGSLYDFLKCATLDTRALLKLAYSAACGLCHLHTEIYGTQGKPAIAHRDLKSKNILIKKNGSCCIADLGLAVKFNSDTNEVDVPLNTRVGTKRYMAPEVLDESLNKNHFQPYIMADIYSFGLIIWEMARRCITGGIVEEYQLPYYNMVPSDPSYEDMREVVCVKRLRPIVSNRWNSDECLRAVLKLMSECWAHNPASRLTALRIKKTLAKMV

ALK6 (aa168-495) = ALK6 (aa168-495) (Homo sapiens (Human), UniProt O00238); test: Caliper biochemical peptide phosphorylation assay, ALK6; conditions: 15 μm ATP, 60 min at 30° C.; read-out: ALK6 EPK (IC50)
ALK6 (aa168-495), sequence (O00238 168-495): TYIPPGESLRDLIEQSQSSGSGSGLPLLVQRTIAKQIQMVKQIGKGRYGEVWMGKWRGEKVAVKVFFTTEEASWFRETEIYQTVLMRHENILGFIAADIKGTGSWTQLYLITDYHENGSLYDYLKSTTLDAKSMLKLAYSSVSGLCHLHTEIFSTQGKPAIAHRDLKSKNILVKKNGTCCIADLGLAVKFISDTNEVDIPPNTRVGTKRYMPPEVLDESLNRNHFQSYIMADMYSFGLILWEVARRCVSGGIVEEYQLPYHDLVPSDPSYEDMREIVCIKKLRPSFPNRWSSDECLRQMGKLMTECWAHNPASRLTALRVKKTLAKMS

ALK1 (aa166-493) = ALK1 (aa166-493) (Homo sapiens (Human), UniProt P37023); test: Caliper biochemical peptide phosphorylation assay, ALK1; conditions: 15 μm ATP, 60 min at 30° C.; read-out: ALK1 EPK (IC50)
ALK1 (aa166-493), sequence (P37023 166-493): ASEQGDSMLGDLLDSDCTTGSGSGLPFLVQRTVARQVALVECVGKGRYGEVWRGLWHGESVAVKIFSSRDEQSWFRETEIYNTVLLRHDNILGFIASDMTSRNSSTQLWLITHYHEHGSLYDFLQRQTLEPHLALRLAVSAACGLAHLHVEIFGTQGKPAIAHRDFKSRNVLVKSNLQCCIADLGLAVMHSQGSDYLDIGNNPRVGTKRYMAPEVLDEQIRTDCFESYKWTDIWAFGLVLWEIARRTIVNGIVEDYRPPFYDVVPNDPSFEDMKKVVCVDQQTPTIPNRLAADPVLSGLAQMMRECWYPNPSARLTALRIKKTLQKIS

[3] = system: BMP response element (BRE) luciferase reporter in HuH7 cells, BMP6 stimulated; test: BMP signaling reporter gene assay; type: cell-based; conditions: Homo sapiens, Huh-7; HuH7 BRE-luciferase, BMP6 100 ng/ml, 5 hours; read-out: MSD BMP RGA IC50

T1 sequence (Q04771 172-499): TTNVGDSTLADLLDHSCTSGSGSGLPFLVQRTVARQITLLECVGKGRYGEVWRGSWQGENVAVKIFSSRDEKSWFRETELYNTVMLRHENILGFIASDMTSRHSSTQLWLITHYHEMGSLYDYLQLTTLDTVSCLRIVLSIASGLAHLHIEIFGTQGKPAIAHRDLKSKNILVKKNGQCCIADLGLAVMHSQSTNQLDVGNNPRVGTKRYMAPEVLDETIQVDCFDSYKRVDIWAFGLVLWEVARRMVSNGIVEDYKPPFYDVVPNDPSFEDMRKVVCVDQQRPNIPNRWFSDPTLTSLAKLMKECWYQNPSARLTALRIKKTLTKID
ALK5 (aa162-503), sequence (P36897 162-503): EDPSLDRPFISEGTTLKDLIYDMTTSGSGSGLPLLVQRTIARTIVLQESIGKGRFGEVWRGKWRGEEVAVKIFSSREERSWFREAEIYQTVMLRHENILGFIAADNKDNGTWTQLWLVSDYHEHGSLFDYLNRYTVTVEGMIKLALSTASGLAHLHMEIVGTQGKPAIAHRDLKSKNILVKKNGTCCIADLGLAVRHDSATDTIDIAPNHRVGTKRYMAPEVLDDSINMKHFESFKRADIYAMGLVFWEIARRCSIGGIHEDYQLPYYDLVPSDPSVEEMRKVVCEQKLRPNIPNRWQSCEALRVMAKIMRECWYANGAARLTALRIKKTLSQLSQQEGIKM

Compound | IC50 (ALK5 (aa162-503)) | IC50 [1] | IC50 [2] | IC50 (ALK3 (aa198-525)) | IC50 (ALK6 (aa168-495)) | IC50 (ALK1 (aa166-493)) | IC50 [3]
Nc1ncc(-c2ccc([C@@]34C[C@@H]3CN(C3CCN(CC(F)(F)F)CC3)C4)cc2)cc1C(=O)N[C@H]1CC[C@H](O)CC1 [Example 39, 2-amino-N-((1r,4R)-4-hydroxycyclohexyl)-5-(4-((1R,5S)-3-(1-(2,2,2-trifluoroethyl)piperidin-4-yl)-3-azabicyclo[3.1.0]hexan-1-yl)phenyl)nicotinamide] | 1600 nM | 13 nM | 24 nM | 830 nM | 2000 nM | 190 nM | 78 nM
Nc1ncc(-c2ccc([C@]34C[C@H]3CN(C3CCOCC3)C4)cc2)cc1C(=O)N[C@H]1CC[C@H](O)CC1 [Example 33] | – | 10 nM | 20 nM | – | 2000 nM | 220 nM | 26 nM
C[C@@H]1CCCN1Cc1ccc(-c2cnc(N)c(C(=O)N[C@H]3CC[C@](C)(O)CC3)c2)c(F)c1F [Example 74, 2-amino-5-(2,3-difluoro-4-(((R)-2-methylpyrrolidin-1-yl)methyl)phenyl)-N-((1r,4R)-4-hydroxy-4-methylcyclohexyl)nicotinamide] | 10000 nM | 64 nM | 70 nM | 13200 nM | 10000 nM | 2500 nM | 550 nM
Nc1ncc(-c2ccc([C@]34C[C@H]3CN(CC(F)(F)F)C4)cc2)cc1C(=O)N[C@H]1CC[C@H](O)CC1 [Example 67, 2-amino-N-((1r,4S)-4-hydroxycyclohexyl)-5-(4-((1S,5R)-3-(2,2,2-trifluoroethyl)-3-azabicyclo[3.1.0]hexan-1-yl)phenyl)nicotinamide] | 10000 nM | 22 nM | 50 nM | 1900 nM | 8700 nM | 180 nM | 1160 nM
Nc1ncc(-c2ccc([C@@]34C[C@@H]3CN(CC3COC3)C4)cc2)cc1C(=O)N[C@H]1CC[C@H](O)CC1 [Example 70, 2-amino-N-((1r,4R)-4-hydroxycyclohexyl)-5-(4-((1R,5S)-3-(oxetan-3-ylmethyl)-3-azabicyclo[3.1.0]hexan-1-yl)phenyl)nicotinamide] | 9400 nM | 20 nM | 68 nM | 2850 nM | 8750 nM | 305 nM | 513 nM
Nc1ncc(-c2ccc([C@]34C[C@H]3CN(CCN3CCOCC3)C4)cc2)cc1C(=O)NC12CCC(O)(CC1)CC2 [Example 40, 2-amino-N-(4-hydroxybicyclo[2.2.2]octan-1-yl)-5-(4-((1S,5R)-3-(2-morpholinoethyl)-3-azabicyclo[3.1.0]hexan-1-yl)phenyl)nicotinamide] | 3900 nM | 32 nM | 29 nM | 995 nM | 2850 nM | 410 nM | 75 nM
C[C@@H]1CCCN1Cc1ccc(-c2cnc(N)c(C(=O)N[C@H]3CC[C@H](O)CC3)c2)cc1 [Example 31, 2-amino-N-((1r,4R)-4-hydroxycyclohexyl)-5-(4-(((R)-2-methylpyrrolidin-1-yl)methyl)phenyl)nicotinamide] | 3500 nM | 13 nM | 20 nM | 1200 nM | 4500 nM | 230 nM | 115 nM
CS(=O)(=O)N1CCC(N2C[C@H]3C[C@@]3(c3ccc(-c4cnc(N)c(C(=O)N[C@H]5CC[C@H](O)CC5)c4)cc3)C2)CC1 [Example 1, 2-amino-N-((1r,4R)-4-hydroxycyclohexyl)-5-(4-((1R,5S)-3-(1-(methylsulfonyl)piperidin-4-yl)-3-azabicyclo[3.1.0]hexan-1-yl)phenyl)nicotinamide] | 560 nM | 5 nM | 9 nM | 310 nM | 740 nM | 75 nM | 76 nM
C[C@@H]1CCCN1Cc1ccc(-c2cnc(N)c(C(=O)N[C@H]3CC[C@](C)(O)CC3)c2)cc1F [Example 46, 2-amino-5-(3-fluoro-4-(((R)-2-methylpyrrolidin-1-yl)methyl)phenyl)-N-((1r,4R)-4-hydroxy-4-methylcyclohexyl)nicotinamide] | 10000 nM | 24 nM | 25 nM | 14600 nM | 10000 nM | – | –
C[C@]1(O)CC[C@H](NC(=O)c2cc(-c3ccc([C@]45C[C@H]4CN(C4CCOCC4)C5)cc3)cnc2N)CC1 [Example 62] | – | – | – | – | – | – | 134 nM
[2H][C@]1(O)CC[C@H](NC(=O)c2cc(-c3ccc([C@]45C[C@H]4CN(C(C)C)C5)cc3)cnc2N)CC1 [Example 78, 2-amino-N-((1r,4S)-4-hydroxycyclohexyl-4-d)-5-(4-((1S,5R)-3-isopropyl-3-azabicyclo[3.1.0]hexan-1-yl)phenyl)nicotinamide] | 7800 nM | 37 nM | 109 nM | 8300 nM | 10000 nM | 310 nM | 220 nM
CC(C)N1C[C@@H]2C[C@]2(c2ccc(-c3cnc(N)c(C(=O)N[C@H]4CC[C@](C)(O)CC4)c3)cc2)C1 [Example 32, 2-amino-N-((1r,4S)-4-hydroxy-4-methylcyclohexyl)-5-(4-((1S,5R)-3-isopropyl-3-azabicyclo[3.1.0]hexan-1-yl)phenyl)nicotinamide] | 3200 nM | 22 nM | 20 nM | 12700 nM | 3300 nM | 743 nM | 93 nM
C[C@]1(O)CC[C@H](NC(=O)c2cc(-c3ccc([C@@]45C[C@@H]4CN(C4CCOCC4)C5)cc3)cnc2N)CC1 [Example 14, 2-amino-N-((1r,4R)-4-hydroxy-4-methylcyclohexyl)-5-(4-((1R,5S)-3-(tetrahydro-2H-pyran-4-yl)-3-azabicyclo[3.1.0]hexan-1-yl)phenyl)nicotinamide] | – | – | – | – | – | – | 205 nM
Nc1ncc(-c2ccc([C@]34C[C@H]3CN(CCF)C4)cc2)cc1C(=O)NC12CCC(O)(CC1)CC2 [Example 73, 2-amino-5-(4-((1S,5R)-3-(2-fluoroethyl)-3-azabicyclo[3.1.0]hexan-1-yl)phenyl)-N-(4-hydroxybicyclo[2.2.2]octan-1-yl)nicotinamide] | – | – | – | – | – | – | 130 nM
Nc1ncc(-c2ccc([C@]34C[C@H]3CN(C3CCC(F)(F)CC3)C4)cc2)cc1C(=O)N[C@H]1CC[C@H](O)CC1 [Example 27, 2-amino-5-(4-((1S,5R)-3-(4,4-difluorocyclohexyl)-3-azabicyclo[3.1.0]hexan-1-yl)phenyl)-N-((1r,4S)-4-hydroxycyclohexyl)nicotinamide] | – | 10 nM | 18 nM | – | 1600 nM | 135 nM | 59 nM
Nc1ncc(-c2ccc(C3CCNC3)cc2)cc1C(=O)N[C@H]1CC[C@H](O)CC1 (some centres unmarked) [Example 18, 2-amino-N-((1r,4r)-4-hydroxycyclohexyl)-5-(4-(pyrrolidin-3-yl)phenyl)nicotinamide] | – | – | – | – | – | 200 nM | –
Nc1ncc(-c2ccc([C@@]34C[C@@H]3CN(CCF)C4)cc2)cc1C(=O)NC12CCC(O)(CC1)CC2 [Example 57, 2-amino-5-(4-((1R,5S)-3-(2-fluoroethyl)-3-azabicyclo[3.1.0]hexan-1-yl)phenyl)-N-(4-hydroxybicyclo[2.2.2]octan-1-yl)nicotinamide] | – | – | – | – | – | – | 144 nM
Nc1ncc(-c2ccc([C@@]34C[C@@H]3CN(C3CCOCC3)C4)cc2)cc1C(=O)N[C@H]1CC[C@H](O)CC1 [Example 19, 2-amino-N-((1r,4R)-4-hydroxycyclohexyl)-5-(4-((1R,5S)-3-(tetrahydro-2H-pyran-4-yl)-3-azabicyclo[3.1.0]hexan-1-yl)phenyl)nicotinamide] | – | 12 nM | – | – | 2250 nM | 105 nM | 21 nM
Nc1ncc(-c2ccc([C@@]34C[C@@H]3CN(C3CCC(F)(F)CC3)C4)cc2)cc1C(=O)N[C@H]1CC[C@H](O)CC1 [Example 25, 2-amino-5-(4-((1R,5S)-3-(4,4-difluorocyclohexyl)-3-azabicyclo[3.1.0]hexan-1-yl)phenyl)-N-((1r,4R)-4-hydroxycyclohexyl)nicotinamide] | – | 9 nM | 18 nM | – | 3000 nM | – | 35 nM
C[C@@H]1CCCN1Cc1ccc(-c2cnc(N)c(C(=O)N[C@H]3CC[C@](C)(O)CC3)c2)cc1 [Example 72, 2-amino-N-((1r,4R)-4-hydroxy-4-methylcyclohexyl)-5-(4-(((R)-2-methylpyrrolidin-1-yl)methyl)phenyl)nicotinamide] | – | – | – | – | – | 2950 nM | –
Nc1ncc(-c2ccc([C@@]34C[C@@H]3CN(C3CCOCC3)C4)cc2)cc1C(=O)N[C@H]1CC[C@@H](O)CC1 [Example 22, 2-amino-N-((1s,4S)-4-hydroxycyclohexyl)-5-(4-((1R,5S)-3-(tetrahydro-2H-pyran-4-yl)-3-azabicyclo[3.1.0]hexan-1-yl)phenyl)nicotinamide] | – | 9 nM | 16 nM | – | 3200 nM | 250 nM | 41 nM
CC(C)N1CCC(c2ccc(-c3cnc(N)c(C(=O)N[C@H]4CC[C@H](O)CC4)c3)cc2)C1 (some centres unmarked) [Example 12, 2-amino-N-((1r,4r)-4-hydroxycyclohexyl)-5-(4-(1-isopropylpyrrolidin-3-yl)phenyl)nicotinamide] | – | – | – | – | – | 160 nM | –

Reference: US10710980B2, “Aminopyridine derivatives and their use as selective ALK-2 inhibitors” (priority 2016, dated 2020)
